SMILES strings stand for the structures. Values after ≈ are worked out from the molar mass of the structure shown.

A word on the IC50: it is the concentration that inhibits the measured activity by half. Low values mean inhibition by little substance, high ones a need for much substance. As usually defined, the Kd is a measure of binding affinity in units of concentration. Low readings indicate tighter binding, high ones weaker binding. Usually solubility stands for the dissolved amount per volume that the medium holds. Read a low solubility as a poorly soluble substance. As a reminder, the chromatographic logD is a lipophilicity value derived from retention on a column. Low values mean a more hydrophilic compound, high ones a more lipophilic compound.

The target in series [1] is T1, ATPase family AAA domain-containing protein 2 (Homo sapiens, UniProt Q6PL18).
T1 sequence (Q6PL18 whole entry): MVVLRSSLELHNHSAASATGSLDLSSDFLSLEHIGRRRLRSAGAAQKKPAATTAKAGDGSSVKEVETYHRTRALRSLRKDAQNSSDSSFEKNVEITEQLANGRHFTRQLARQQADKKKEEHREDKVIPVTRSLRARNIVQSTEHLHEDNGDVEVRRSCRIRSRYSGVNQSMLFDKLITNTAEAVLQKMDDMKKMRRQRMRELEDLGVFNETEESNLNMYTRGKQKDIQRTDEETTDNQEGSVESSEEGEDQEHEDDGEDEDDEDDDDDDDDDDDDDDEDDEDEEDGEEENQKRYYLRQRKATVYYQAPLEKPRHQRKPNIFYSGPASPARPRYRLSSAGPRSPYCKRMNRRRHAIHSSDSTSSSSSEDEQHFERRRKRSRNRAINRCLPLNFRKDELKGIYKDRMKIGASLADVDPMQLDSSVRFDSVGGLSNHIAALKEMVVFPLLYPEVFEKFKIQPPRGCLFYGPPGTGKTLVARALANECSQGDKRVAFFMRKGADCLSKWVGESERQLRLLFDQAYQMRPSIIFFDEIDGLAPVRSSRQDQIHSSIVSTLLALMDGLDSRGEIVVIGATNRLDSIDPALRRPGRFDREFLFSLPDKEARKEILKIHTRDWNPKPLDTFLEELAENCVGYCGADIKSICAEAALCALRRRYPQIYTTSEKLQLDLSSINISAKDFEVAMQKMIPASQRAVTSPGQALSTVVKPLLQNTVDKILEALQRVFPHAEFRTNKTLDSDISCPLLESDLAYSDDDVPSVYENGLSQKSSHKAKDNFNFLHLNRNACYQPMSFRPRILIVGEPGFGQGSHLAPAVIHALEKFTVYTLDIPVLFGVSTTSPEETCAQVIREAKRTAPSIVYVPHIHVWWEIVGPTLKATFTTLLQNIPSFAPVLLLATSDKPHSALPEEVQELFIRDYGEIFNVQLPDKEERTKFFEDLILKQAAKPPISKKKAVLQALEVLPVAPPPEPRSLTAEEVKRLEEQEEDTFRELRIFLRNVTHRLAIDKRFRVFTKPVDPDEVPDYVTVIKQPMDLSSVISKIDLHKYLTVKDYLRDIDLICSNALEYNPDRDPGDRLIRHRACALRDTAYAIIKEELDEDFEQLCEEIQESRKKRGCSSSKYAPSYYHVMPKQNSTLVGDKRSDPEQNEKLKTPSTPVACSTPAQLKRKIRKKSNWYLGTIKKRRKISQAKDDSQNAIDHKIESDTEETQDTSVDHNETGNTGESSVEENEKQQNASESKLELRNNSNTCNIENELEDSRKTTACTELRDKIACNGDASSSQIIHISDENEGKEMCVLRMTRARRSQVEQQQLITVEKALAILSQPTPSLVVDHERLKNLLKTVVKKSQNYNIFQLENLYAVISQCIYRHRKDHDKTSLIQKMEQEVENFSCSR
Briefly: Displacement of Alexa Fluor 488-labeled ligand from FLAG-6His-Tev-fused ATAD2 (981 to 1121 residue) (unknown origin) measured after 30 mins by TR-FRET assay. In general terms: Time-resolved FRET reads energy transfer from a long-lived donor to a nearby acceptor.

A short description of series [2]: Permeability of the compound by artificial lipid membrane-based method. It is filed as ADME. The following applies: not told; read-out: permeability.
The target of series [3] is T2, Chromatin remodeling regulator CECR2 (Homo sapiens, UniProt Q9BXF3). Briefly: Displacement of Alexa Fluor 647-labeled GSK tracer from FLAG-6His-Tev-fused CECR2 (424 to 543 residue) (unknown origin) measured after 15 mins by TR-FRET assay.
T2 sequence (Q9BXF3 whole entry, the tested form may be a part): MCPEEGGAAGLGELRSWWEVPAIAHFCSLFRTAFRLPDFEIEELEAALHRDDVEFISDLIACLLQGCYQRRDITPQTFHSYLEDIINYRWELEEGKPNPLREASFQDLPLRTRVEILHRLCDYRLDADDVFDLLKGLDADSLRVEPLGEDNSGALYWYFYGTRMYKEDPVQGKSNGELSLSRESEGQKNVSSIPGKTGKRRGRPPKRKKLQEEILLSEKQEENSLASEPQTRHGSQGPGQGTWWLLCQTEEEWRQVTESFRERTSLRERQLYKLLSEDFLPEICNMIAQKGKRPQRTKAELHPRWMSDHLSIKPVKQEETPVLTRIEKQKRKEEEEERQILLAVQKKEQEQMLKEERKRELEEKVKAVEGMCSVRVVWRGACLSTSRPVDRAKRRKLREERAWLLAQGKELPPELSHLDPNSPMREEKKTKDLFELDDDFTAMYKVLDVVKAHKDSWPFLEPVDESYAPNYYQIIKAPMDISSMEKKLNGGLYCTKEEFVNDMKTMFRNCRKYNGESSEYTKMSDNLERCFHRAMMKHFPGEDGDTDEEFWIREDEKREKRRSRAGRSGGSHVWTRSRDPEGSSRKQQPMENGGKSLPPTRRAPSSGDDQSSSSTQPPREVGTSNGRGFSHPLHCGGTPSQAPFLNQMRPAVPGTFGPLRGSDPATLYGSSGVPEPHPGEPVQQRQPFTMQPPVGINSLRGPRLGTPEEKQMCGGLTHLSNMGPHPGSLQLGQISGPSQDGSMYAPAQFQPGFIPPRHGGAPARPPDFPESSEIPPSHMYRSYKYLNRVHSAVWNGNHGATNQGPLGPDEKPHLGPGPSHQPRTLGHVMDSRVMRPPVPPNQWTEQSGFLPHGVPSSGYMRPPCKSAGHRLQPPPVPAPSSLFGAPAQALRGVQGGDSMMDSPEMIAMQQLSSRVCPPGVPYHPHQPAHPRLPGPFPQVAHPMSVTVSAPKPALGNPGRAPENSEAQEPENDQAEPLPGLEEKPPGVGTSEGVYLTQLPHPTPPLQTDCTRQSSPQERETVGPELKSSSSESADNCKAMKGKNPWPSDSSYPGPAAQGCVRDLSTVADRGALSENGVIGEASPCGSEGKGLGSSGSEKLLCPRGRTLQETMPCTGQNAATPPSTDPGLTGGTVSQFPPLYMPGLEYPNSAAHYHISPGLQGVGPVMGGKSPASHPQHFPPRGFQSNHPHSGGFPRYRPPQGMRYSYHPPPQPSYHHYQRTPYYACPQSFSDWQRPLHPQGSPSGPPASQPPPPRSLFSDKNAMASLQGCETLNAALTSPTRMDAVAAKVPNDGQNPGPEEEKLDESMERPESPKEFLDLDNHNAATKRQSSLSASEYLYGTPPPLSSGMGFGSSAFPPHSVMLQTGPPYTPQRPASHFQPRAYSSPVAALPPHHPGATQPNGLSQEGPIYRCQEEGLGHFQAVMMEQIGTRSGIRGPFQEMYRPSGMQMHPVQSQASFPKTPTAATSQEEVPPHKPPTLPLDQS
For series [4], the target named is Bromodomain-containing protein 4 (Homo sapiens, UniProt O60885, Y390A). Briefly: Displacement of Alexa Fluor 647-labeled ligand from BRD4 BD1 Y390A mutant (1 to 477 residue) (unknown origin) measured after 30 mins by TR-FRET assay.
Series [5] concerns the target Histone acetyltransferase KAT2A (Homo sapiens, UniProt Q92830). Briefly: Binding affinity to human partial length GCN5L2 (E726 to K837 residues) expressed in bacterial expression system by BROMOscan assay.
In series [6] the target is T2, Chromatin remodeling regulator CECR2. Briefly: Inhibition of BSP-BODIPY binding to Nanoluc-tagged CECR2 (unknown origin) expressed in HEK293 cells measured after 4 to 6 hrs by NanoBRET assay. It is filed as cell-based. (In general: BRET reads energy transfer from a luciferase to a nearby fluorophore.)
Series [7] shares this target. Briefly: Binding affinity to human partial length CECR2 (P423 to D543 residues) expressed in bacterial expression system by BROMOscan assay.
Series [8] concerns the target Bromodomain-containing protein 4 (Homo sapiens, UniProt O60885). Briefly: Displacement of Alexa Fluor 647-labeled ligand from BRD4 BD2 (unknown origin) measured after 30 mins by TR-FRET assay.
Series [9] in a line: Solubility of the compound by CAD method. Format: physicochemical.
A short description of series [10]: Lipophilicity, log D of the compound at pH 7.4 by chromatographic method. Format: physicochemical. The following applies: buffer.
For series [11], the species on record is Homo sapiens. Briefly: Selectivity ratio of IC50 for displacement of Alexa Fluor 488-labeled ligand from FLAG-6His-Tev-fused ATAD2 (981 to 1121 residue) (unknown origin) to IC50 for displacement of Alexa Fluor 647-labeled GSK tracer from FLAG-6His-Tev-fused CECR2 (424 to 543 residue) (unknown origin).
The target of series [12] is T2, Chromatin remodeling regulator CECR2. Briefly: Binding affinity to CECR2 (unknown origin) by ITC analysis. For orientation: Isothermal titration calorimetry measures the heat released or taken up as one component is titrated into another.

Chain of Histone acetyltransferase KAT2A (Q92830 whole entry, the tested form may be a part): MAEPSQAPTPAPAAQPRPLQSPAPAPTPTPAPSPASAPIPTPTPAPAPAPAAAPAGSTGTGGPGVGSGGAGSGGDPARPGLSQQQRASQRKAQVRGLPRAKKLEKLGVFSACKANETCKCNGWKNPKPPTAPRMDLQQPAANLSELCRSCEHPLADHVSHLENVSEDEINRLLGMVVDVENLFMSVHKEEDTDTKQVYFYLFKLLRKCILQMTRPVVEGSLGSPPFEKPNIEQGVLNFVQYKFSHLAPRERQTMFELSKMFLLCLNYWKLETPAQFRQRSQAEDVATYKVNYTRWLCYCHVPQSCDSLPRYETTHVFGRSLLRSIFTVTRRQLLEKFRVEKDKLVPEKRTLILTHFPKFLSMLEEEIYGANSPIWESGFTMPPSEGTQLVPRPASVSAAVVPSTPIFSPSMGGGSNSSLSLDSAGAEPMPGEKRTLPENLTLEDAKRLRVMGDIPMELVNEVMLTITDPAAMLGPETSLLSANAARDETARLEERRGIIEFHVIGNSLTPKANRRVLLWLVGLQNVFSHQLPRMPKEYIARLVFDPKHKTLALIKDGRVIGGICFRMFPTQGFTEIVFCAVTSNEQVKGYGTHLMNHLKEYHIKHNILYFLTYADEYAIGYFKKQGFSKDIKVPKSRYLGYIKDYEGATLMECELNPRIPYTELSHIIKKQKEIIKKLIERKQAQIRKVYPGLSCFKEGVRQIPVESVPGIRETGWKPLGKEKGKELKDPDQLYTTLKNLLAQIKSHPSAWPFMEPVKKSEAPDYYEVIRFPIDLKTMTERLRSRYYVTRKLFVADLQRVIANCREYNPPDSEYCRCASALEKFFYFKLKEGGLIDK

As to `CC(=O)Nc1ccc(Cl)c(S(=O)(=O)N2CCCC2)c1`, the figures for the IC50 in [1], in series [3] and in series [4] were 31600 nM, 79400 nM and 200000 nM, respectively. The Papp in series [2] was 27 ×10⁻⁶ cm/s.
On to `CN1CCc2c(nnn2CC(=O)Nc2ccc(Br)c(S(=O)(=O)N3CC[C@H](C4CC4)C3)c2)C1`, for which the IC50 in series [1] is 2000 nM; in series [6], 39.8 nM; in series [8], 5010 nM; in series [4], 12600 nM. For the same compound, the Kd is 158 nM in series [5] and 10 nM in series [7]. For the same compound, the Papp in series [2] is 14 ×10⁻⁶ cm/s.
As to `CC1(C2CC2)NC(=O)N(CC(=O)Nc2ccc(Cl)c(S(=O)(=O)N3CCCC3)c2)C1=O` (racemic), the results for the IC50 in [1], in [3] and in series [4] were 1000 nM, 1580 nM and more than 501000 nM, respectively. For the same compound, the Papp in series [2] was 10 ×10⁻⁶ cm/s.
Turning to `O=C(CN1C(=O)COC1=O)Nc1ccc(Cl)c(S(=O)(=O)N2CCCC2)c1`, the values for the IC50 in [1], in series [3] and in series [4] were 1260 nM, 1580 nM and more than 50100 nM, respectively. In series [2], the Papp worked out at 5.4 ×10⁻⁶ cm/s.
Take `CC1NC(=O)N(CC(=O)Nc2ccc(Cl)c(S(=O)(=O)N3CCCC3)c2)C1=O` (racemic): the IC50 in series [1] was 1260 nM; in series [3], 6310 nM; in series [4], more than 50100 nM. The Papp in series [2] is 1.2 ×10⁻⁶ cm/s.
Turning to `O=C(CN1CCCC1=O)Nc1ccc(Cl)c(S(=O)(=O)N2CCCC2)c1`, the IC50 in series [1] was 50100 nM; in [3], 20000 nM; in series [4] it was more than 50100 nM. Also, the Papp in series [2] amounted to 12 ×10⁻⁶ cm/s.
On to `O=C(CN1C(=O)CCC1=O)Nc1ccc(Cl)c(S(=O)(=O)N2CCCC2)c1`, for which the IC50 in series [1] is 1260 nM; in [3], 3980 nM; in series [4], more than 50100 nM. The Papp in series [2] is 4.2 ×10⁻⁶ cm/s.
On to `CN1CCc2c(nnn2CC(=O)Nc2ccc(Cl)c(S(=O)(=O)N3CC[C@H](C4CC4)C3)c2)C1`, for which the IC50 was 3160 nM in series [1]; 50.1 nM in series [6]; 20 nM in [3]; 10000 nM in series [8]; 25100 nM in series [4]. Further, the Kd in [5] was 501 nM; in [7], 7.94 nM. In addition, the Papp in series [2] turned out to be 11.1 ×10⁻⁶ cm/s.
In the case of `C[C@H]1CCN(S(=O)(=O)c2cc(NC(=O)Cn3nnc4c3CCN(CC(F)(F)F)C4)ccc2Br)C1`, the IC50 in series [1] is 2510 nM; in [3] it was 158 nM; in [4] it was 31600 nM. Also, in [9], the concentration in solution (solubility) was 49 µg/mL (≈ 86.7 µM). The same compound registered a chromatographic logD in [10] of 5.3. In [11], the Ratio IC50 was 16.
In the case of `CC1(C)NC(=O)N(CC(=O)Nc2ccc(Cl)c(S(=O)(=O)N3CCCC3)c2)C1=O`, the IC50 was 1580 nM in series [1], 5010 nM in series [3] and more than 50100 nM in series [4]. Moreover, in series [2], the Papp was 1.8 ×10⁻⁶ cm/s.
As to `CN(C)CC1CCN(S(=O)(=O)c2cc(NC(=O)CN3C(=O)CNC3=O)ccc2Cl)C1` (stereo not drawn), the IC50 in series [1] was 1000 nM; in series [3], 3980 nM; in series [4], more than 50100 nM. For the same compound, the Papp in series [2] is less than 0.3 ×10⁻⁶ cm/s.
Turning to `CN(C)CCCOc1ccc(-c2cc(NCCCn3cccn3)nc(S(C)(=O)=O)n2)cc1`, the Kd in series [12] was 10 nM.
For the compound `C[C@@H]1CN(S(=O)(=O)c2cc(NC(=O)CN3C(=O)CNC3=O)ccc2Cl)C[C@@H]1C`, the results for the IC50 in series [1], in series [3] and in [4] were 2000 nM, 20000 nM and more than 50100 nM, respectively.
As for `C[C@H]1CCN(S(=O)(=O)c2cc(NC(=O)Cn3nnc4c3CN(C)CC4)ccc2Br)C1`, the IC50 is 2000 nM in series [1], 251 nM in series [3] and more than 50100 nM in [4].
For `C[C@H]1CCN(S(=O)(=O)c2cc(NC(=O)Cc3coc4ccccc34)ccc2Br)C1`, the values for the IC50 in series [1], in [3] and in series [4] were 2510 nM, 7940 nM and more than 50100 nM, respectively.

The values are drawn from ChEMBL document CHEMBL4354881, “Optimization of Potent ATAD2 and CECR2 Bromodomain Inhibitors with an Atypical Binding Mode” (J Med Chem, 2020).
